{"source": "patent US8748470B2", "about": "“Methods for treating ovarian cancer by inhibiting fatty acid binding proteins” (The University of Chicago, priority 2011, dated 2014)", "key": {"[1]": {"test_system": "SKOV3ip1 cells", "assay": "invasion assay of SKOV3ip1 cells toward adipocytes", "format": "cell-based, human", "conditions": "inhibitor added to coculture; used at 10 μM; 24 h", "source_text": "(§1) FIGS. 11a-11g FABP4 has a key role in the interaction of cancer cells with adipocytes. (a) Representative immunohistochemical staining (bottom) for FABP4 in serial sections of primary ovarian tumor and corresponding omental metastatic tissues from a subject with stage IIIC advanced serous ovarian cancer (as classified by the International Federation of Gynecology and Obstetrics). Hematoxylin and eosin (H & E) staining is in the top images. The graph on the right is a summary of FABP4 protein expression scoring in 20 subjects, as assessed by immunohistochemistry. The scoring (0, 1 or 2, corresponding to negative, weak or strong) was performed in different tissue compartments: Benign ovarian stroma (A), primary ovarian cancer in the ovary (B), ovarian cancer metastatic to the omentum (C), interface of ovarian cancer cells into adipocytes (Adi) (D), and adipocytes (E). Error bars, ±s.e.m. (b) Confocal microscopy images of lipid accumulation in SKOV3ip1 cells cocultured with or without primary human omental adipocytes and a FABP4 inhibitor (nuclear counterstaining). One of two experiments, conducted with different human subject samples, is shown. (c) Invasion assay of SKOV3ip1 cells toward adipocytes in the absence or presence of the FABP4 inhibitor HTS01037. Bars report mean fold change±s.e.m. One of two experiments, using two different human subject samples, is shown. […]"}, "[2]": {"test_system": "SKOV3ip1 cells", "assay": "lipid accumulation in cancer cells cocultured with primary human omental adipocytes (Bodipy 493/503, confocal microscopy)", "format": "cell-based", "source_text": "as §1, with “±s.e.m.” for “±s.e.m. (b) Confocal microscopy images of lipid accumulation in SKOV3ip1 cells cocultured with or without primary human omental adipocytes and a FABP4 inhibitor (nuclear counterstaining). One of two experiments, conducted with different human subject samples, is shown. (c) Invasion assay of SKOV3ip1 cells toward adipocytes in the absence or presence of the FABP4 inhibitor HTS01037. Bars report mean fold change±s.e.m. One of two experiments, using two different human subject samples, is shown.”\nLipid visualization. […] Adipocytes and extracellular fatty acids were washed away with HBSS containing 0.2% fatty-acid free BSA and total fluorescence per well in triplicate was quantified. […] Quantification of Bodipy neutral lipid dye was performed using Imaris software (Bitplane Inc., South Windor, Conn.) and normalized to number of nuclei in field (5-10 fields/condition). […]"}, "[3]": {"test_system": "HSL phosphorylation", "assay": "immunoblot for phosphorylated hormone sensitive lipase (p-HSL) in adipocyte/SKOV3ip1 coculture", "format": "cell-based, human", "conditions": "pretreated with 10 μM propranolol", "source_text": "FIGS. 9a-9d Cocultivation of ovarian cancer cells with adipocytes activates lipolysis in adipocytes and β-oxidation in cancer cells. (a) Quantitative RT-PCR for perilipin 1 in primary human omental adipocytes (Adi) cultured with and without SKOV3ip1 ovarian cancer (OvCa) cells. Bars report mean fold change relative to glyceraldehyde 3-phosphate dehydrogenase expression±s.e.m. (b) Immunoblot for phosphorylated hormone sensitive lipase (p-HSL) and total HSL in SKOV3ip1 cells cocultured with (+) and without (−) adipocytes and pretreated with 10 μM propranolol, a β-adrenergic receptor antagonist. (c) SKOV3ip1 cells were cocultured (1 h) with adipocytes, treated with isoproterenol (positive control) or 14-22 amide (negative control) and protein kinase A (PKA) activity was assessed. (d) β-oxidation in MONTY-1 OvCa cells cocultured with primary human adipocytes (L-carnitine, positive control; etomoxir, negative control). The graph reports the average oxidation rate at the indicated times±s.e.m.\nImmunoblotting. In coculture experiments, primary human omental adipocytes were added to CMFDA-labeled SKOV3ip1 cells in SFM (1:5, PCV adipocytes:SFM) and incubated for 24 h. The adipocytes were removed and the SKOV3ip1 cells were subjected to FACS sorting to remove any remaining adipocytes in experiments involving FABP4 expression. […]"}, "[4]": {"test_system": "ID8 mouse ovarian cancer cells", "assay": "tumor burden in mice after intraperitoneal injection of shRNA-transfected ID8 cells", "format": "in vivo", "conditions": "10 weeks after intraperitoneal injection of shRNA-transfected ID8 cells, vs control group", "source_text": "(§2) FIGS. 16a-16d Effects of FABP4 downregulation. (a) FABP4 mRNA expression in ID8 mouse ovarian cancer cells transfected with FABP4 small hairpin RNA (shRNA) (F4) or vector control shRNA (VC) in the presence (+) or absence (−) of mouse adipocytes. Bars report means±s.e.m. (b) Tumor burden in mice 10 weeks after intraperitoneal injection of ID8 mouse ovarian cancer cells transfected with 5 million shRNA (F4 or VC). (c) Metastatic tumor burden in mice 10 weeks after intraperitoneal injection of ID8 mouse ovarian cancer cells transfected with 5 million shRNA (F4 or VC). (d) mRNA expression of FABP4 in tumors collected 10 weeks after intraperitonel injection of ID 8 mouse ovarian cancer cells transferred with FABP4 shRNA or vector control shRNA. FABP4 mRNA expression was measured by quantitiative RT-PCR.\nAnimal experiments. All animal experiments were approved by the Institutional Animal Care and Use Committee, University of Chicago. Xenograft animal experiments and in vivo homing were conducted in female immune-compromised athymic nude mice. […] Tumor volumes were measured as described (Zou et al., 2007) over 24 d and tumor weight determined at the end of the experiment. […] Metastatic tumor weight and number of metastatic nodules were determined at the end of each experiment and tumor tissue fixed in 10% formalin."}, "[5]": {"test_system": "FABP4 mRNA", "assay": "FABP4 mRNA expression in ID8 cells transfected with shRNA (quantitative RT-PCR)", "format": "cell-based, mouse", "conditions": "ID8 cells transfected with FABP4 shRNA vs vector control", "source_text": "as §2, with “(d) mRNA expression of FABP4 in tumors collected 10 weeks after intraperitonel injection of ID 8 mouse ovarian cancer cells transferred with FABP4 shRNA or vector control shRNA.” left out\nQuantitative real-time PCR. […] Real-time quantitative reverse transcription-PCR (RT-PCR) was performed as described (Sawada et al., 2008) using the following probes (Applied Biosystems, Carlsbad, Calif.): acyl-coenzyme A oxidase (ACOX1, Hs01074241_m1), CXCR1 (IL-8 receptor, Hs00174146 ml), carnitine palmitoyltransferase 1a (CPT1a, Hs00912681_m1), fatty acid binding protein 4 (FABP4; human, Hs00609791_m1; mouse, Mm00445878_m1), perilipin 1 (PLIN1, Hs00160173_m1) and glyceraldehyde-3-phosphate dehydrogenase (GAPDH; human, Hs00266705_g1; mouse, Mm99999915_g1). Relative mRNA gene expression was calculated using the 2^−ΔΔCt method as described (Shell et al., 2007). […]"}, "[6]": {"test_system": "ID8 mouse ovarian cancer cells", "assay": "tumor burden in mice after bursal injection of ID8 cells and treatment with FABP4 inhibitor", "format": "in vivo", "conditions": "20 mg/kg body weight daily by oral gavage from day 60 after ID8 injection, assessed after 30 d", "experimental": "(a) Immune competent mice were injected with 1 million ID8 cells under the ovarian bursa. […] Number of metastases (a) and metastatic tumor weight (b) were assessed 30 d after the FABP4 inhibitor or control vehicle treatment."}, "[7]": {"test_system": "human ovarian cancer cells (HeyA8 or SKOV3ip1)", "assay": "ex vivo ovarian cancer cell proliferation on sections of human omentum", "format": "cell-based", "conditions": "HeyA8 or SKOV3ip1, fluorescently labeled, 24 h", "source_text": "Representative images (left) and quantified fluorescence (right) were shown. Bars report means±s.e.m."}}, "data": [{"molecule": "COC(=O)c1sc(-c2cccs2)cc1NC(=O)C=CC(=O)O", "note": "[HTS01037, 4-{[2-(methoxycarbonyl)-5-(2-thienyl)-3-thienyl]amino}-4-oxo-2-butenoic acid]", "values": [{"measurement": "adipocyte-mediated invasion", "setting": "[1]", "value": "drastically reduced"}, {"measurement": "lipid uptake in SKOV3ip1 cells cocultured with human omentum adipocytes", "setting": "[2]; 36 h coculture, Bodipy 493/503", "value": "prevents lipid uptake"}, {"measurement": "lipid accumulation in the cancer cells", "setting": "[2]; inhibitor added to coculture of ovarian cancer cells and adipocytes, used at 10 μM", "value": "drastically reduced"}]}, {"molecule": "CC(C)NCC(O)COc1cccc2ccccc12", "note": "(centres unmarked) [propranolol]", "values": [{"measurement": "ovarian cancer cell-induced HSL activation", "setting": "[3]", "value": "partially reversed"}]}, {"molecule": "FABP4 shRNA: FABP4 small hairpin RNA (shRNA); comprises a nucleic acid sequence of SEQ ID NO: 1 (CCGGCTGGATGGAAATTTGCATCAACTCGAGTTGATGCAAATTTCCATCCAGTTTTTG)", "values": [{"measurement": "tumor burden, intraperitoneal model", "setting": "[4]", "value": "substantially lowered"}, {"measurement": "mRNA expression level of FABP4", "setting": "[5]", "value": "decreased"}]}, {"molecule": "CCc1c(-c2ccccc2)c(-c2ccccc2)nn1-c1ccccc1-c1cccc(OCC(=O)O)c1", "note": "[BMS309403, ((2′-(5-ethyl-3,4-diphenyl-1H-pyrazol-1-yl)(1,1′-biphenyl)-3-yl)oxy)-acetic acid]", "values": [{"measurement": "tumor burden (number of metastases, metastatic tumor weight)", "setting": "[6]", "value": "significantly reduced"}, {"measurement": "human ovarian cancer cell proliferation on sections of human omentum", "setting": "[7]", "value": "reduces human ovarian cancer cell proliferation"}]}]}
